Where “and” joins values, the source holds several entries; their conditions need not be identical. Identical values can stand only once. Like-named read-outs stand apart in the source and are kept apart here.
Columns and labels:
delta opioid receptor [1] = biological target: T1, delta opioid receptor (Mus musculus, UniProt P32300); experiment: [35S]GTPγS binding assay in NG108-15 cell membranes (delta opioid functional assay); format: biochemical; conditions: for GTPγS δ-Rel Efficacy @200 nM: 200 nM compound, relative to calculated max of SNC80 dose response
T1 construct: NG108-15 cell membranes were purchased from Applied Cell Sciences (Rockville, Md.); host or cells: NG108-15 cell membranes (purchased)
Procedure: Methods: NG108-15 cell membranes were purchased from Applied Cell Sciences (Rockville, Md.). 5 mg/mL of membrane protein was suspended in 10 mM TRIS-HCl pH 7.2, 2 mM EDTA, 10% sucrose. Membranes were maintained at 4-8° C. A 1 mL volume of membranes was added into 10 mL cold binding assay buffer. The assay buffer contained 50 mM Tris, pH 7.6, 5 mM MgCl2, 100 mM NaCl, 1 mM DTT and 1 mM EGTA. The membrane suspension was homogenized twice with a Polytron, and centrifuged at 3000 rpm for 10 min. The supernatant was then centrifuged at 18,000 rpm for 20 min. Ten mL assay buffer was added into the pellet containing tube. The pellet and buffer were mixed with a Polytron.
Incubation procedure: The pellet membranes (75 μg/mL) were preincubated with SPA (10 mg/mL) at 25° C. for 45 min in the assay buffer. […] 200 nM of receptor agonists was used to stimulate [^35S]-GTPγS binding. The basal binding was tested in the absence of agonists and non-specific binding was tested in the presence of 10 μM unlabeled GTPγS.
Data % of Basal=(stimulated−non specific)*100/(basal−non specific). Relative Efficacy of a compound at 200 nM=(% of Basal of test compound at 200 nM)/(Calculated Max of SNC80 dose response. Curve in prism).

delta opioid receptor [2] = biological target: T2, delta opioid receptor (Rattus norvegicus, UniProt P33533); experiment: Rat brain delta opioid receptor binding assay
T2 construct: the forebrains were homogenized in Tris buffer in a Teflon®-glass homogenizer; from tissue; host or cells: forebrain of male Wistar rats, particulate membrane preparation
Procedure: (§1) Procedure: Male, Wistar rats (150-250 g, VAF, Charles River, Kingston, N.Y.) were killed by CO2, and their brains were removed and placed immediately in ice cold Tris HCl buffer (50 mM, pH 7.4). The forebrains were separated from the remainder of the brain by a coronal transection, beginning dorsally at the colliculi and passing ventrally through the midbrain-pontine junction. After dissection, the forebrains were homogenized in Tris buffer in a Teflon®-glass homogenizer. The homogenate was diluted to a concentration of 1 g of forebrain tissue per 80 mL Tris and centrifuged at 39,000×g for 10 min. The pellet was resuspended in the same volume of Tris buffer containing 5 mM MgCl2 with several brief pulses from a Polytron homogenizer. This particulate preparation was used for the delta opioid binding assays. Following incubation with the delta selective peptide ligand ˜4 nM [^3H]DPDPE or 0.25 nM [^3H]naltrindole at 25° C. for 2.5 h in a 96-well plate with total volume of […], the plate contents were filtered through Wallac filtermat B sheets on a Tomtec 96-well harvester. […] To each sample area 2×50 μL of Betaplate Scint scintillation fluid (LKB) was added and the radioactivity was quantified on a LKB (Wallac) 1205 BetaPlate liquid scintillation counter.
(§2) Analysis: The data from the scintillation counter was used to calculate either the % inhibition compared to control binding (when only a single concentration of test compound was evaluated) or a Ki value (when a range of concentrations was tested). Percent inhibition was calculated as: [(total dpm−test compound dpm)/(total dpm-nonspecific dpm)]*100. Kd and Ki values were calculated using GraphPad PRISM data analysis program.

delta opioid receptor [3] = biological target: T1, delta opioid receptor; experiment: [35S]GTPγS binding assay in NG108-15 cell membranes (delta opioid functional assay); format: biochemical; conditions: for inhibition at 10 µM: read-out: GTPγS δ-opioid receptor % Inh @10 μM, 10 μM
mu opioid receptor = biological target: T3, mu opioid receptor (Rattus norvegicus, UniProt P33535); experiment: Rat brain mu opioid receptor binding assay
T3 construct: the forebrains were homogenized in Tris buffer in a Teflon®-glass homogenizer; from tissue; host or cells: forebrain of male Wistar rats, particulate membrane preparation
Procedure: as §1, with “mu” for “delta”, “ligand, ˜0.8” for “ligand ˜4”, “[^3H]DAMGO,” for “[^3H]DPDPE or 0.25 nM [^3H]naltrindole”, “total assay” for “total”, “2×40” for “2×50”, “quantifed” for “quantified”
as §2

delta opioid receptor [4] = biological target: T1, delta opioid receptor; experiment: NG108-15, 24-well delta opioid receptor binding assay; conditions: NG108-15 cell membranes, ~0.2 nM [3H]Naltrindole; read-out: δ-binding NG108 cell membrane Ki
Procedure: Methods: NG108-15 cell membranes were purchased from Applied Cell Sciences (Rockville, Md.). 5 mg/mL of membrane protein was suspended in 10 mM TRIS-HCl pH 7.2, 2 mM EDTA, 10% sucrose. With several brief pulses from a Polytron homogenizer, each vial was homogenized in 5 mls of 50 mM Tris Buffer, pH 7.4. The homogenate was diluted in 50 mM Tris Buffer containing 5 mM MgCl2 to 330 ug/ml in the working solution for a final concentration of 133 ug/well. This particulate preparation was used for the 24-well delta opioid binding assay.
Following incubation with the delta selective ligand ˜0.2 nM [^3H]Naltrindole at 25° C. for 2.5 h in a 24-well plate with total volume of 1 mL, the plate contents were filtered through a UniFilter24, GF/B. This plate was presoaked in 0.3% PEI and filtered through a 24-well Harvester. The UniFilter24 was rinsed three times with 2 mL of 10 mM HEPES (pH 7.4), and dried in an oven at 37° C. for 1.5 hours. To each well, was added 150 μL of Scint0 (PerkinElmer, Cat#6013611). The plates were then read on a TopCount.
Analysis: The data from the scintillation counter were used to calculate either the % inhibition compared to control binding (when only a single concentration of test compound was evaluated) or a Ki value (when a range of concentrations was tested). Non-specific binding (N.S.—1 mM Naloxone) is used as the negative control, while the Total Binding (T.B.—Membrane and ligand only) is used as the positive control. If one concentration is screened, the % inhibition is calculated as (cpms of total binding minus cpms of compound) divided by (cpms of T.B. minus cpms of N.S). The triplicate % Inhibitions are averaged and reported. If multiple concentrations are generated, the values are analyzed using the one-site binding non-linear regression program in Prism to determine Ki values. The bottom and top values are globally shared. The triplicate Kis are then averaged and reported.

[5] = biological target: T4, mu opioid receptor (CHO-hMOR cell membranes) (Homo sapiens, UniProt P35372); experiment: [35S]GTPγS binding assay in CHO-hMOR cell membranes (mu opioid functional assay); format: biochemical
T4 construct: host or cells: CHO cells (membranes purchased)

[6] = read-out: GTPγS δ-opioid receptor EC50
[7] = rat forebrain membranes, 0.25 nM [3H]naltrindole, read-out: δ-binding (Naltrindole ligand) Ki
[8] = rat forebrain membranes, ~0.8 nM [3H]DAMGO, read-out: μ-binding Ki

T3 sequence (P33535 whole entry): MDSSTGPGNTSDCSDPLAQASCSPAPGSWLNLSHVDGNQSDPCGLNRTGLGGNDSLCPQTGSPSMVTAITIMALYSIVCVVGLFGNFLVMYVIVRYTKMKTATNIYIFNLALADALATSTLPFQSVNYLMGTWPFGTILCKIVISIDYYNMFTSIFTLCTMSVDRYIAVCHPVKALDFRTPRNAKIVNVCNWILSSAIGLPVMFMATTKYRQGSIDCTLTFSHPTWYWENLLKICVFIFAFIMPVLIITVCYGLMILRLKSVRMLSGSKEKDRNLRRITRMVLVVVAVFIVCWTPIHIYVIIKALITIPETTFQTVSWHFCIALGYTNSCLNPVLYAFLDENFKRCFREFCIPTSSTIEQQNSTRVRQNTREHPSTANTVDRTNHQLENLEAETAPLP
T1 sequence (P32300 whole entry): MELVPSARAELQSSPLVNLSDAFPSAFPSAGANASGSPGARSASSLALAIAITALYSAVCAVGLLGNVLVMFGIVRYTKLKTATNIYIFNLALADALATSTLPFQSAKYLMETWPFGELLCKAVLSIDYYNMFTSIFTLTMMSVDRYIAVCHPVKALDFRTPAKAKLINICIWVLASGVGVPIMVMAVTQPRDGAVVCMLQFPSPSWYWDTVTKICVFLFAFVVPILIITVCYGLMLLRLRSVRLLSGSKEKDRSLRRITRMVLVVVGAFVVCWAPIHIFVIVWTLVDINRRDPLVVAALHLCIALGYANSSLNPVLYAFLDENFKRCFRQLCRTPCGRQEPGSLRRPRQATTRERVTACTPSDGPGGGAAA
T2 sequence (P33533 whole entry): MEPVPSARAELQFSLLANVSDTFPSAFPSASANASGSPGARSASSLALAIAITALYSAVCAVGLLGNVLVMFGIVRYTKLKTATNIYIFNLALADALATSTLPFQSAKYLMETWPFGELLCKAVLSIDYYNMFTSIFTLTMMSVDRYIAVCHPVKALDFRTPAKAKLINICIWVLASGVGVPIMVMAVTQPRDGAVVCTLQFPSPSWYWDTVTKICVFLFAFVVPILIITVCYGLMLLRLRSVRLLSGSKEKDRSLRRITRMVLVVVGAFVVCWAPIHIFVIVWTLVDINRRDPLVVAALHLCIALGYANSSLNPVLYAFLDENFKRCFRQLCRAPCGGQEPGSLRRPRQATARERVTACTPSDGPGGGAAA
T4 sequence (P35372 whole entry): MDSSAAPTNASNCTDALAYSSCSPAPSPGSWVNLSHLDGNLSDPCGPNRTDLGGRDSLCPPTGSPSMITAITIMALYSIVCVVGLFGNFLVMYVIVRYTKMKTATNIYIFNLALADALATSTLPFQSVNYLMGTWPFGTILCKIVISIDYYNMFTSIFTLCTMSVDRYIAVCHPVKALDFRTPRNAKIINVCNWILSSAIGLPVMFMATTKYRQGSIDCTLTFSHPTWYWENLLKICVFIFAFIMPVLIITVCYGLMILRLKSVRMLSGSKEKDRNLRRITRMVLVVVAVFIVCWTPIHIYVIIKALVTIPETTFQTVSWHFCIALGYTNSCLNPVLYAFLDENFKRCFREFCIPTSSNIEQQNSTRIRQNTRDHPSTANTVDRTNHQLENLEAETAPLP

Compound | EC50 (delta opioid receptor [1]; [6]) [nM] | Ki (delta opioid receptor [2]) [nM] | inhibition at 10 µM (delta opioid receptor [3]) [%] | Ki (mu opioid receptor) [nM] | GTPγS δ-opioid receptor % Inh @10 μM (delta opioid receptor [3]) [%] | GTPγS δ-opioid receptor Rel Efficacy (delta opioid receptor [1]) | Ki (delta opioid receptor [4]) [nM] | Ki (delta opioid receptor [2]; [7]) [nM] | Ki (mu opioid receptor; [8]) [nM] | further results
CCN(CC)C(=O)c1ccc(Oc2ncc(NC[C@@H]3CCCN3)c(Oc3ccc(OC)cc3)n2)cc1 [Cpd 5, N,N-Diethyl-4-{4-(4-methoxy-phenoxy)-5-[(pyrrolidin-2-(S)-ylmethyl)-amino]pyrimidin-2-yloxy}-benzamide] | 2620 | 18.3 | 26.4 | 18.2 | – | – | – | – | – | –
N-{2-[2,4-Bis-(4-methoxy-phenoxy)-pyrimidin-5-ylamino]ethyl}-guanidine [Cpd 44] | 1110 | – | – | – | 15.636 | – | – | – | – | –
[2-(3-Fluoro-phenoxy)-4-(4-methoxy-phenoxy)-pyrimidin-5-yl]-pyrrolidin-2-(S)-ylmethyl-amine [Cpd 46] | 28 | – | – | – | – | 0.983 | 0.288 | – | – | GTPγS δ-Rel Efficacy @200 nM (delta opioid receptor [1]): 0.770
COc1ccc(Oc2nc(Oc3cccnc3)ncc2NC[C@@H]2CCCN2)cc1 [Cpd 45] | 734 | – | – | – | – | 1.178 | 1.45 | – | – | –
COc1ccc(Oc2nc(C#Cc3ccccc3)ncc2NC[C@@H]2CCCN2)cc1 [Cpd 4, [4-(4-Methoxy-phenoxy)-2-phenylethynyl-pyrimidin-5-yl]-pyrrolidin-2-(S)-ylmethyl-amine] | – | – | 8.94 | – | – | – | – | 16.3 | 4420 | EC50 (delta opioid receptor [1]; GTPγS δ-opioid receptor EC50): 1030 nM
COc1ccc(Oc2ncc(NC3CCCC(N)C3)c(Oc3ccc(OC)cc3)n2)cc1 (stereo not drawn) [Cpd 3] | – | – | 12.8 | – | 19.733 | 1.106 | – | 16.1 | 1670 | EC50 (delta opioid receptor [1]; GTPγS δ-opioid receptor EC50): 559 nM and 92 nM and 206 nM
COc1ccc(Oc2ncc(NC3CCCNC3)c(Oc3ccc(OC)cc3)n2)cc1 (stereo not drawn) [Cpd 2] | 828 | 7.61 | 8.16 | 2440 | – | – | – | – | – | –
COc1ccc(Oc2ncc(NC[C@@H]3CCCN3)c(Oc3ccc(OC)cc3)n2)cc1 [Cpd 1, [2,4-Bis-(4-methoxyphenoxy)pyrimidin-5-yl]pyrrolidin-2-(S)-ylmethylamine] | – | 5.9 | – | 3880 | – | – | – | – | – | EC50 ([5]; CHO-hMOR cell membranes, read-out: GTPγS μ-opioid receptor EC50): 84300 nM; inhibition at 10 µM ([5]; read-out: GTPγS μ-opioid receptor % Inh @10 μM): 19.5%
COc1ccc(Oc2ncc(NCC3CCCN3)c(Oc3ccc(OC)cc3)n2)cc1 (stereo not drawn) [Cpd 7] | 221 | – | – | – | 20.645 | – | – | 68.4 | 2850 | –
COc1ccc(Oc2nc(Sc3cccc(F)c3)ncc2NC[C@@H]2CCCN2)cc1 [Cpd 47] | 193 | – | – | – | – | 1.079 | 0.739 | – | – | GTPγS δ-Rel Efficacy @200 nM (delta opioid receptor [1]): 0.481

— patent US8394809B2, “Phenoxy-substituted pyrimidines as opioid receptor modulators” (priority 2009, dated 2013)
